Entries after “also recorded” stand apart in the source; their conditions may differ.
Tests used:
U-2 OS cells = test: Flow-FISH telomere length (PNA-FITC probe) and PI cell cycle analysis in treated telomerase negative U-2 OS cells; assay type: cell-based, human; conditions: for apoptosis (flow-FISH) / cell cycle (PI) / telomere length (flow-FISH): ACV 3 μM; for apoptosis (flow-FISH) / cell cycle (PI) / telomere length (flow-FISH) / apoptosis / cell cycle distribution / telomere length: GCV 1.5 μM, PCV 1.5 μM; for apoptosis / cell cycle distribution / telomere length: after 10 and 14 days of treatments, ACV 3.0 μM
Method: (§1) Both telomerase positive (HeLa) telomerase negative (U-2 OS) cell lines were used. Appropriate assays were performed to detect and confirm telomerase/L1RT specific activity in these cells.
(§2) Telomere length in ACV, GCV and PCV treated and untreated cell lines was measured by flow cytometry with a telomere-specific peptide nucleic acid (PNA) probe^23,24. To determine cell cycle distribution, cells were stained with propidium iodide (PI)^23.
(§3) The U-2 OS (osteosarcoma) and HeLa (uterine cervix) cell lines used in this study were obtained from American Type Culture Collection (Rockville, Md.). Cells were cultured in D-MEM media supplemented with 10% fetal calf serum at 37° C. in a humidified atmosphere of 5% CO2. For treatment of the cells with ACV, the media was supplemented with 3 μM of acyclovir (acyclovir, TEVA Pharm. Ind. Ltd, Israel). For treatment of the cells with GCV, the media was supplemented with 1.5 μM of GCV (Cymevene, Hoffman-La Roche). For treatment of the cells with PCV, the media was supplemented with 1.5 μM of PCV (penciclovir, Merck & Co.).
(§4) For telomere length measurement by flow cytometry, cells were stained with telomere specific FITC conjugated (C3TA2)3 PNA (Applied Biosystems) probe and contrastained with 0.06 μg/ml PI as described by Rufer et al., 1998, Telomere length dynamics in human lymphocyte subpopulations were measured by flow cytometry, Nat. Biotechnol. 16, 743-747.

HeLa cells [1] = test: Flow-FISH telomere length (PNA-FITC probe) and PI cell cycle analysis in treated telomerase positive HeLa cells; assay type: cell-based, human; conditions: for apoptosis (flow-FISH) / cell cycle (PI) / telomere length (flow-FISH): 10 days of treatment, ACV 3 μM, FIG. 1; for apoptosis (flow-FISH) / cell cycle (PI) / telomere length (flow-FISH) / apoptosis / cell cycle distribution / telomere length: GCV 1.5 μM, PCV 1.5 μM; for apoptosis / cell cycle distribution / telomere length: after 10 and 14 days of treatments, ACV 3.0 μM; for cell cycle distribution (PI): treated for 14 days
Method: as §1, §2, §3, §4

HeLa cells [2] = test: Tumor growth progression assay, s.c. HeLa xenografts in nude mice; assay type: in vivo, nude (nu/nu) mice; conditions: 1×10^6 HeLa cells s.c., GCV 2 mg/ml in drinking water ad libitum from day zero
From the text: Exemplary in vivo assays of anti-tumor efficacy of ACV, PCV and/or GCV using nude mice subcutaneous (s.c.) tumors grown from the human HeLa cancer cell line (i.e., xenografts bearing mice) as cancer models are described below. Human cancerous cells needed for in vivo assays may be prepared, for example, as follows: Telomerase positive HeLa human cell line and telomerase negative U-2 OS human cell line are obtained from public sources. Cells are maintained in D-MEM media supplemented with 10% foetal calf serum at 37° C. in a humidified atmosphere of 5% CO2. For in vivo assay, appropriate host, e.g., nude (nu/nu) mice of about 5-7 weeks old are obtained and maintained in pathogen-free conditions. Approximately, 1×10^6 HeLa cells (and/or U-2 OS cells) contained in 200 μl of serum-free media are delivered to all animals, briefly anaesthetized with Metofane, by subcutaneous (s.c.) injection in flank. Then the mice are divided into experimental group and control group. Appropriate concentrations of ACV, PCV and/or GCV are used for tumor growth progression or regression assays. In one embodiment, impairment of s.c. tumor growth or time to progression rather than decrease in size of an established tumor (regression) is assessed. […] Tumors are measured every 2-3 days. […] Tumor volume is calculated with formula 4/3πr^3, where r is the radius of the tumor.

| SMILES | apoptosis (flow-FISH) (U-2 OS cells; 10 days of treatment, FIG. 2) | cell cycle (PI) (U-2 OS cells; 10 days of treatment, FIG. 2) | telomere length (flow-FISH) (U-2 OS cells; 10 days of treatment, FIG. 2) | cell cycle (PI) (U-2 OS cells; 14 days of treatment) | apoptosis (flow-FISH) (U-2 OS cells; 14 days of treatment, FIG. 3) | telomere length (flow-FISH) (U-2 OS cells; 14 days of treatment, FIG. 3) | onset of changes in cell cycle distribution (U-2 OS cells; ACV treatment) | apoptosis (U-2 OS cells) | cell cycle distribution (U-2 OS cells) | telomere length (U-2 OS cells) | apoptosis (flow-FISH) (HeLa cells [1]) | cell cycle (PI) (HeLa cells [1]) | telomere length (flow-FISH) (HeLa cells [1]) | onset of changes in cell cycle distribution (HeLa cells [1]; ACV treatment) | apoptosis (HeLa cells [1]) | cell cycle distribution (HeLa cells [1]) | telomere length (HeLa cells [1]) | cell cycle distribution (PI) (HeLa cells [1]) | s.c. tumor development (HeLa cells [2]) |
| --- | --- | --- | --- | --- | --- | --- | --- | --- | --- | --- | --- | --- | --- | --- | --- | --- | --- | --- | --- |
| Nc1nc2c(ncn2COCCO)c(=O)[nH]1 [ACV, 9-[2(hydromethoxy)-methyl]guanine] | massive apoptosis | changes in cell cycle | decrease in telomere length | changes in cell cycle; also recorded: G2 arrest of cell cycle | massive apoptosis | decrease in telomere length | could be detected after only few days | massive apoptosis | G2 arrest | telomere shortening | massive apoptosis | changes in cell cycle | decrease in telomere length | could be detected after only few days | massive apoptosis | G2 arrest | telomere shortening | G2 arrest of cell cycle |  |
| Nc1nc(O)c2ncn(COC(CO)CO)c2n1 [GCV] | massive apoptosis | changes in cell cycle | decrease in telomere length | changes in cell cycle; also recorded: G2 arrest of cell cycle | massive apoptosis | decrease in telomere length |  | massive apoptosis | G2 arrest | telomere shortening | massive apoptosis | changes in cell cycle | decrease in telomere length |  | massive apoptosis | G2 arrest | telomere shortening | G2 arrest of cell cycle | remain tumor free |
| Nc1nc2c(ncn2CCC(CO)CO)c(=O)[nH]1 [PCV] | massive apoptosis | changes in cell cycle | decrease in telomere length | changes in cell cycle; also recorded: G2 arrest of cell cycle | massive apoptosis | decrease in telomere length |  | massive apoptosis | G2 arrest | telomere shortening | massive apoptosis | changes in cell cycle | decrease in telomere length |  | massive apoptosis | G2 arrest | telomere shortening | G2 arrest of cell cycle |  |

From patent US9078901B2, “Pharmacological modulation of telomere length in cancer cells for prevention and treatment of cancer” (priority 2007, dated 2015)
